From the kinase profiling compilation of Christmann-Franck et al. (2016)
“And” between values parts separate entries of the source, which are not always exact repeats. Equal entries are not always repeated.

Tests used:
Test in all cases: radiometric filter-binding kinase assay, Kinase HotSpot
Conditions in all cases: compound 0.5 µM; ATP 10 µM
PLK2 (human) = PLK2 (human) (UniProt Q9NYY3)
MAPKAPK5 (human) = MAPKAPK5 (human) (UniProt Q8IW41)
EPHB2 (human) = EPHB2 (human) (UniProt P29323)
DAPK1 (human) = DAPK1 (human) (UniProt P53355)
MAP4K4 (human) = MAP4K4 (human) (UniProt O95819)
PRKCD (human) = PRKCD (human) (UniProt Q05655)
CDK7 CCNH MNAT1 (human) = CDK7 CCNH MNAT1 (human) (UniProt P50613+P51948+P51946)
MINK1 (human) = MINK1 (human) (UniProt Q8N4C8)
SGK2 (human) = SGK2 (human) (UniProt Q9HBY8)
EPHB4 (human) = EPHB4 (human) (UniProt P54760)
PRKD1 (human) = PRKD1 (human) (UniProt Q15139)
STK33 (human) = STK33 (human) (UniProt Q9BYT3)
NEK9 (human) = NEK9 (human) (UniProt Q8TD19)
PRKG1 (human) = PRKG1 (human) (UniProt Q13976)
FES (human) = FES (human) (UniProt P07332)
AURKA (human) = AURKA (human) (UniProt O14965)
PRKACA (human) = PRKACA (human) (UniProt P17612)
MST4 (human) = MST4 (human) (UniProt Q9P289)
CLK2 (human) = CLK2 (human) (UniProt P49760)
MYLK2 (human) = MYLK2 (human) (UniProt Q9H1R3)
MYLK (human) = MYLK (human) (UniProt Q15746)
MLTK (human) = MLTK (human) (UniProt Q9NYL2)
GSK3A (human) = GSK3A (human) (UniProt P49840)
ULK2 (human) = ULK2 (human) (UniProt Q8IYT8)
NEK11 (human) = NEK11 (human) (UniProt Q8NG66)
RPS6KB2 (human) = RPS6KB2 (human) (UniProt Q9UBS0)
SYK (human) = SYK (human) (UniProt P43405)
CAMK1D (human) = CAMK1D (human) (UniProt Q8IU85)
ROCK1 (human) = ROCK1 (human) (UniProt Q13464)
INSRR (human) = INSRR (human) (UniProt P14616)
CAMK2B (human) = CAMK2B (human) (UniProt Q13554)
CDK6 CCND1 (human) = CDK6 CCND1 (human) (UniProt Q00534+P24385)
MKNK2 (human) = MKNK2 (human) (UniProt Q9HBH9)
CDK9 CCNK (human) = CDK9 CCNK (human) (UniProt O75909+P50750)
PIM1 (human) = PIM1 (human) (UniProt P11309)
STK39 (human) = STK39 (human) (UniProt Q9UEW8)
CDK2 CCNE1 (human) = CDK2 CCNE1 (human) (UniProt P24941+P24864)
WNK2 (human) = WNK2 (human) (UniProt Q9Y3S1)
EPHA1 (human) = EPHA1 (human) (UniProt P21709)
MET (human) = MET (human) (UniProt P08581)
MAPK10 (human) = MAPK10 (human) (UniProt P53779)
PAK6 (human) = PAK6 (human) (UniProt Q9NQU5)

SGK2 (human), sequence (Q9HBY8 whole entry, looked up): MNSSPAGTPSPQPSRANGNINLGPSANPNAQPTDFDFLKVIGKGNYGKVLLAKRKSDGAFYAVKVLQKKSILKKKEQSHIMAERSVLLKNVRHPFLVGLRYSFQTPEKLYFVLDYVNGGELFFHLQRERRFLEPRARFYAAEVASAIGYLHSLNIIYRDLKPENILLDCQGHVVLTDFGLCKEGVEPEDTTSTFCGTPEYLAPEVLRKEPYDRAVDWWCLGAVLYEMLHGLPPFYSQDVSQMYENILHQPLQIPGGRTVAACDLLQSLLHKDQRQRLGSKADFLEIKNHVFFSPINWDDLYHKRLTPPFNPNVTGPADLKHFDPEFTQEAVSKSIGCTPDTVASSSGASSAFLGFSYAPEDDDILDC
CAMK1D (human), sequence (Q8IU85 whole entry, looked up): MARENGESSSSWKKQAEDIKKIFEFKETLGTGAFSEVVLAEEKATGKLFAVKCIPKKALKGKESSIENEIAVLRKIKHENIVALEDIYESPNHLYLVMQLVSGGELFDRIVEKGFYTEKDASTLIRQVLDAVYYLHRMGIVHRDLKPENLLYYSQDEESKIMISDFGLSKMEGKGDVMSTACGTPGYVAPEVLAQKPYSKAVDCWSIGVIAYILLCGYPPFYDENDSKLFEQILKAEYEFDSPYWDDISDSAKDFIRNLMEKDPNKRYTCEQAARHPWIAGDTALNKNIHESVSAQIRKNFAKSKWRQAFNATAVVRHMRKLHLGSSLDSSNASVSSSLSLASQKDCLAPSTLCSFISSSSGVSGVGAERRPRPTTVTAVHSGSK
CDK6 CCND1 (human), sequence (P24385 whole entry, looked up): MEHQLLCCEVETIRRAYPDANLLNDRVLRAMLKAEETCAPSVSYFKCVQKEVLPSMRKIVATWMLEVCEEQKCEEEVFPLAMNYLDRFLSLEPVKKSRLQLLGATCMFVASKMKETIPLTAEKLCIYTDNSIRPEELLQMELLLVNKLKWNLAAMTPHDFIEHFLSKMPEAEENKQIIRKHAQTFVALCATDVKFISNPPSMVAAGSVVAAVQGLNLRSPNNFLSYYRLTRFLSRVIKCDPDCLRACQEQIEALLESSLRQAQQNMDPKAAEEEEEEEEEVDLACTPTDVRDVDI
CDK6 CCND1 (human), sequence (Q00534 whole entry, looked up): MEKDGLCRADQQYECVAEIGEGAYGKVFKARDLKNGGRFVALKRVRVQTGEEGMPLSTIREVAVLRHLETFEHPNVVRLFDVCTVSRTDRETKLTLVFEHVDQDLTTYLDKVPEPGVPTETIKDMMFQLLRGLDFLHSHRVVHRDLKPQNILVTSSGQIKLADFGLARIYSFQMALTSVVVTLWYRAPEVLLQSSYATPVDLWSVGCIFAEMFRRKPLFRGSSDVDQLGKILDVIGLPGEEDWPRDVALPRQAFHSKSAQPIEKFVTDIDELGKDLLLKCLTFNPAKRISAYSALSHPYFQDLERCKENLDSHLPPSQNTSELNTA
PRKG1 (human), sequence (Q13976 whole entry, looked up): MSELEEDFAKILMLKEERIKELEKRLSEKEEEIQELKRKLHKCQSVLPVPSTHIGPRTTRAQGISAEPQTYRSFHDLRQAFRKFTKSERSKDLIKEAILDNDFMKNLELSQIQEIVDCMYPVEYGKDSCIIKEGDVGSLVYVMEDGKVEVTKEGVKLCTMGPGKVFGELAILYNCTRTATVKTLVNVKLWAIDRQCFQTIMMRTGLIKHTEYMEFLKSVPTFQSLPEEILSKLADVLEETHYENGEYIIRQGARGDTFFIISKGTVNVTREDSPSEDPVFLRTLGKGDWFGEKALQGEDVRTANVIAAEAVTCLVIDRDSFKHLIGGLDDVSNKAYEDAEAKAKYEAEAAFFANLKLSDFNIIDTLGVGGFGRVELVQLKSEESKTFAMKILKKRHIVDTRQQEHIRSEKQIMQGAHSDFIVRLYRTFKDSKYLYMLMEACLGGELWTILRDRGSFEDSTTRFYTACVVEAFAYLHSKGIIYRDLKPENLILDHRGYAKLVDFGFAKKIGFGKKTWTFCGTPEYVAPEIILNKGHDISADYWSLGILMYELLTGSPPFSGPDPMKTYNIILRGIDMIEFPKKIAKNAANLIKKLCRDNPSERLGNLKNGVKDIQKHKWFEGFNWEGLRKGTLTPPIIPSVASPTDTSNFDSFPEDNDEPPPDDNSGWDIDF
CDK9 CCNK (human), sequence (O75909 whole entry, looked up): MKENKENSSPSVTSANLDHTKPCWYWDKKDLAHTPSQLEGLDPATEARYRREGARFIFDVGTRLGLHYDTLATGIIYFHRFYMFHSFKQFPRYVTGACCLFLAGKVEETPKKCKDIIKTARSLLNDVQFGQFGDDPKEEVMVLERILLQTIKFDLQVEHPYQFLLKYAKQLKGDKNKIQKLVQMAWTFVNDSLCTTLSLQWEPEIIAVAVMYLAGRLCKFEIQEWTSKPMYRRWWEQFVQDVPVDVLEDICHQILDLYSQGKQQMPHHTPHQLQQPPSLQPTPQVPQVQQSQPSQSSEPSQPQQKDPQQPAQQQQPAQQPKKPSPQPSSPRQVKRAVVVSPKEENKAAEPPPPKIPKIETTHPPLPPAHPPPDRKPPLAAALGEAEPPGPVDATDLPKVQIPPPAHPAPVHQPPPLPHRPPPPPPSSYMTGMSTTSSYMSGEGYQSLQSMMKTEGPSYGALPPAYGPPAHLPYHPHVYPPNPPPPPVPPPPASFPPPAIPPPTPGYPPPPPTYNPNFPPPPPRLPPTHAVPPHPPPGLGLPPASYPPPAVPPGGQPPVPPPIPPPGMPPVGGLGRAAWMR
CDK9 CCNK (human), sequence (P50750 whole entry, looked up): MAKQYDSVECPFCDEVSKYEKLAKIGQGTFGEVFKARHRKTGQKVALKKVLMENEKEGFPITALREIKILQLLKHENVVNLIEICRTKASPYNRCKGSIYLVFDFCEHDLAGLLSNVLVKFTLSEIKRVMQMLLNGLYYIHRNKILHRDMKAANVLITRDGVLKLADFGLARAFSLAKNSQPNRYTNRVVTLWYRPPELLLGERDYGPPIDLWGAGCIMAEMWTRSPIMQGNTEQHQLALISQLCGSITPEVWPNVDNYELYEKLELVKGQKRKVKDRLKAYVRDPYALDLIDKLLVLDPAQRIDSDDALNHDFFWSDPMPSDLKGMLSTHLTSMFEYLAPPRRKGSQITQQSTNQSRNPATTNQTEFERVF
NEK11 (human), sequence (Q8NG66 whole entry, looked up): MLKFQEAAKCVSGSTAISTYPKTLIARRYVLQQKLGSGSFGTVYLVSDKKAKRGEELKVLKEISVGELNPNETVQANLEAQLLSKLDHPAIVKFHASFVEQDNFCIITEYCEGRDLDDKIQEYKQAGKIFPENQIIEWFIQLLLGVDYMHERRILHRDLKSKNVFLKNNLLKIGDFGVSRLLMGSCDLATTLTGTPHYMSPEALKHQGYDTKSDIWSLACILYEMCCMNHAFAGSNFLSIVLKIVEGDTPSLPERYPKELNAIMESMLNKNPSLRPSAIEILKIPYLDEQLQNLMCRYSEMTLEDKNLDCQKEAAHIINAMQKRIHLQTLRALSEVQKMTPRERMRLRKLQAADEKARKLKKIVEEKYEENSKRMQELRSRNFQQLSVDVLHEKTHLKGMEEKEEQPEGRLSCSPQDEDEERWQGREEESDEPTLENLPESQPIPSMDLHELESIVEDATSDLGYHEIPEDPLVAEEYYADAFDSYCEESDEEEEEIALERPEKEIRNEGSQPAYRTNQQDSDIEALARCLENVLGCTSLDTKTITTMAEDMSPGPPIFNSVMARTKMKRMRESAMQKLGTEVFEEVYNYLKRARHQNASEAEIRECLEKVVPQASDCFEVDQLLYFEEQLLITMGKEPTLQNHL
MLTK (human), sequence (Q9NYL2 whole entry, looked up): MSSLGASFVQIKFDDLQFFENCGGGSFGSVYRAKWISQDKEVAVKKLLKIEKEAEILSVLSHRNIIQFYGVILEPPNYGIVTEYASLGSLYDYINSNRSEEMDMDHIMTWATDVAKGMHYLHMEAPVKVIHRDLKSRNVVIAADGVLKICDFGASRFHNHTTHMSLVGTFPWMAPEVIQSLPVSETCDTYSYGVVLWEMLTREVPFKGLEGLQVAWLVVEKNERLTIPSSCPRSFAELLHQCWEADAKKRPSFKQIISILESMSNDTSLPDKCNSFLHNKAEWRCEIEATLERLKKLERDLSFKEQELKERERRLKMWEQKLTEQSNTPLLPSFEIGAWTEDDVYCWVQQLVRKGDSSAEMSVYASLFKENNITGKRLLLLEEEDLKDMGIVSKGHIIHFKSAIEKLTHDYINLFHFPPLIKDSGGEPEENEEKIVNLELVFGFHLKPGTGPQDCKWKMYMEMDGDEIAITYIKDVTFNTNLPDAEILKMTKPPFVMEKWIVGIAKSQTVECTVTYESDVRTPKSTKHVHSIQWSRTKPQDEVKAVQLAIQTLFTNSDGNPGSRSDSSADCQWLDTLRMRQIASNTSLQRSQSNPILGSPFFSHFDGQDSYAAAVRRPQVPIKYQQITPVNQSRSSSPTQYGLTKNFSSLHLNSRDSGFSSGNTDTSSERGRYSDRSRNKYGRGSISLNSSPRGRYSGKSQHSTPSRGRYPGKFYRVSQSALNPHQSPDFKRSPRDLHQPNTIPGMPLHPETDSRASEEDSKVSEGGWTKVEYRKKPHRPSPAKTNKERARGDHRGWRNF
CDK2 CCNE1 (human), sequence (P24864 whole entry, looked up, other chains not shown): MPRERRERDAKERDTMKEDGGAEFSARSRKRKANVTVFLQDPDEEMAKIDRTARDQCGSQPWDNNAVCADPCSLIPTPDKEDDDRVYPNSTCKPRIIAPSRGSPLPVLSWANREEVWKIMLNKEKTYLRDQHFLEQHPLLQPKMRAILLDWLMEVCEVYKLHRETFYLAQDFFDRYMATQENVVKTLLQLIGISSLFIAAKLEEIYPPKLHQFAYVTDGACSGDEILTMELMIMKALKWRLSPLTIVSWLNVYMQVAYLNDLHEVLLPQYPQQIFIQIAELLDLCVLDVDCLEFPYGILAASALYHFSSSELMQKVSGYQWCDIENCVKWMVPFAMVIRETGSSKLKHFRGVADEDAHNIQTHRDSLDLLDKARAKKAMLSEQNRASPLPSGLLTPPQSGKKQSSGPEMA

Compound: COc1ccc(-c2cnc3c(-c4ccsc4)cnn3c2)cc1
- residual activity (PLK2 (human)): 100%
- residual activity (MAPKAPK5 (human)): 90.7%
- residual activity (EPHB2 (human)): 80.5%
- residual activity (DAPK1 (human)): 103%
- residual activity (MAP4K4 (human)): 28.4%
- residual activity (PRKCD (human)): 98.9%
- residual activity (CDK7 CCNH MNAT1 (human)): 100%
- residual activity (MINK1 (human)): 63.7%
- residual activity (SGK2 (human)): 96.7%
- residual activity (EPHB4 (human)): 87.5%
- residual activity (PRKD1 (human)): 95.1%
- residual activity (STK33 (human)): 71.6%
- residual activity (NEK9 (human)): 90.3%
- residual activity (PRKG1 (human)): 86.5% and 89.1%
- residual activity (FES (human)): 98.2%
- residual activity (AURKA (human)): 68%
- residual activity (PRKACA (human)): 96.1%
- residual activity (MST4 (human)): 95.7%
- residual activity (CLK2 (human)): 83.8%
- residual activity (MYLK2 (human)): 75.6%
- residual activity (MYLK (human)): 102%
- residual activity (MLTK (human)): 84.1%
- residual activity (GSK3A (human)): 92.5%
- residual activity (ULK2 (human)): 103%
- residual activity (NEK11 (human)): 93.3%
- residual activity (RPS6KB2 (human)): 100%
- residual activity (SYK (human)): 101%
- residual activity (CAMK1D (human)): 93.5%
- residual activity (ROCK1 (human)): 95.7%
- residual activity (INSRR (human)): 98.7%
- residual activity (CAMK2B (human)): 88.7%
- residual activity (CDK6 CCND1 (human)): 53.4%
- residual activity (MKNK2 (human)): 37.5%
- residual activity (CDK9 CCNK (human)): 76.9%
- residual activity (PIM1 (human)): 97.5%
- residual activity (STK39 (human)): 95.1%
- residual activity (CDK2 CCNE1 (human)): 82.8%
- residual activity (WNK2 (human)): 103%
- residual activity (EPHA1 (human)): 91.5%
- residual activity (MET (human)): 86.3%

Compound: CC(C)n1cnc2c(Nc3cccc(Cl)c3)nc(NCCO)nc21
- residual activity (PLK2 (human)): 95.9%
- residual activity (MAPKAPK5 (human)): 68.6%
- residual activity (EPHB2 (human)): 89.8%
- residual activity (DAPK1 (human)): 78.8%
- residual activity (MAP4K4 (human)): 75.5%
- residual activity (PRKCD (human)): 89.1%
- residual activity (CDK7 CCNH MNAT1 (human)): 78.5%
- residual activity (MINK1 (human)): 86.3%
- residual activity (SGK2 (human)): 97.4%
- residual activity (EPHB4 (human)): 82%
- residual activity (PRKD1 (human)): 99.2%
- residual activity (STK33 (human)): 68.1%
- residual activity (NEK9 (human)): 81.1%
- residual activity (PRKG1 (human)): 92.2% and 98.1%
- residual activity (FES (human)): 66.2%
- residual activity (AURKA (human)): 108%
- residual activity (PRKACA (human)): 99.5%
- residual activity (MST4 (human)): 87.9%
- residual activity (CLK2 (human)): 25%
- residual activity (MYLK2 (human)): 96.3%
- residual activity (MYLK (human)): 87.8%
- residual activity (MLTK (human)): 96.6%
- residual activity (GSK3A (human)): 103%
- residual activity (ULK2 (human)): 89%
- residual activity (NEK11 (human)): 109%
- residual activity (RPS6KB2 (human)): 97%
- residual activity (SYK (human)): 85.1%
- residual activity (CAMK1D (human)): 98.1%
- residual activity (ROCK1 (human)): 101%
- residual activity (MAPK10 (human)): 101%
- residual activity (INSRR (human)): 82.5%
- residual activity (CAMK2B (human)): 95.9%
- residual activity (CDK6 CCND1 (human)): 95.5%
- residual activity (MKNK2 (human)): 94.8%
- residual activity (CDK9 CCNK (human)): 86.9%
- residual activity (PIM1 (human)): 93.9%
- residual activity (STK39 (human)): 100%
- residual activity (CDK2 CCNE1 (human)): 37.2%
- residual activity (WNK2 (human)): 93.6%
- residual activity (EPHA1 (human)): 94.1%
- residual activity (MET (human)): 83.9%

Compound: O=C(NC(NC(=S)Nc1ccc(F)c([N+](=O)[O-])c1)C(Cl)(Cl)Cl)C(c1ccccc1)c1ccccc1 (stereo not drawn)
- residual activity (PLK2 (human)): 92.9%
- residual activity (MAPKAPK5 (human)): 102%
- residual activity (EPHB2 (human)): 101%
- residual activity (DAPK1 (human)): 75.1%
- residual activity (MAP4K4 (human)): 92.7%
- residual activity (PRKCD (human)): 91.2%
- residual activity (CDK7 CCNH MNAT1 (human)): 99%
- residual activity (MINK1 (human)): 110%
- residual activity (SGK2 (human)): 119%
- residual activity (EPHB4 (human)): 101%
- residual activity (PRKD1 (human)): 96.9%
- residual activity (STK33 (human)): 99.6%
- residual activity (NEK9 (human)): 110%
- residual activity (PRKG1 (human)): 100% and 109%
- residual activity (FES (human)): 104%
- residual activity (AURKA (human)): 80.8%
- residual activity (PRKACA (human)): 102%
- residual activity (MST4 (human)): 89.3%
- residual activity (CLK2 (human)): 93.5%
- residual activity (MYLK2 (human)): 104%
- residual activity (MYLK (human)): 99.6%
- residual activity (MLTK (human)): 98.6%
- residual activity (GSK3A (human)): 105%
- residual activity (NEK11 (human)): 92.2%
- residual activity (RPS6KB2 (human)): 99.3%
- residual activity (SYK (human)): 104%
- residual activity (CAMK1D (human)): 99%
- residual activity (ROCK1 (human)): 99.8%
- residual activity (MAPK10 (human)): 96.2%
- residual activity (INSRR (human)): 93.7%
- residual activity (CAMK2B (human)): 104%
- residual activity (CDK6 CCND1 (human)): 101%
- residual activity (MKNK2 (human)): 135%
- residual activity (CDK9 CCNK (human)): 110%
- residual activity (PIM1 (human)): 101%
- residual activity (STK39 (human)): 77%
- residual activity (CDK2 CCNE1 (human)): 89.2%
- residual activity (WNK2 (human)): 117%
- residual activity (EPHA1 (human)): 88.1%
- residual activity (PAK6 (human)): 101%
- residual activity (MET (human)): 101%

Compound: CC(C)(C)c1nc2c3ccc(F)cc3c3c(=O)[nH]ccc3c2[nH]1
- residual activity (PLK2 (human)): 92.6%
- residual activity (MAPKAPK5 (human)): 88.1%
- residual activity (EPHB2 (human)): 92.8%
- residual activity (DAPK1 (human)): 3.03%
- residual activity (MAP4K4 (human)): 38.4%
- residual activity (PRKCD (human)): 43.6%
- residual activity (CDK7 CCNH MNAT1 (human)): 92.8%
- residual activity (MINK1 (human)): 52%
- residual activity (SGK2 (human)): 84.4%
- residual activity (EPHB4 (human)): 88.2%
- residual activity (PRKD1 (human)): 8.19%
- residual activity (STK33 (human)): 53.8%
- residual activity (NEK9 (human)): 71.7%
- residual activity (PRKG1 (human)): 40.2% and 52.3%
- residual activity (FES (human)): 78%
- residual activity (AURKA (human)): 22.3%
- residual activity (PRKACA (human)): 97.9%
- residual activity (MST4 (human)): 70.9%
- residual activity (CLK2 (human)): 93.9%
- residual activity (MYLK2 (human)): 67.2%
- residual activity (MYLK (human)): 9.03%
- residual activity (MLTK (human)): 78.1%
- residual activity (GSK3A (human)): 121%
- residual activity (ULK2 (human)): 41.5%
- residual activity (NEK11 (human)): 92.4%
- residual activity (RPS6KB2 (human)): 102%
- residual activity (SYK (human)): 79%
- residual activity (CAMK1D (human)): 81.6%
- residual activity (ROCK1 (human)): 74.9%
- residual activity (MAPK10 (human)): 107%
- residual activity (INSRR (human)): 75.2%
- residual activity (CAMK2B (human)): 73.4%
- residual activity (CDK6 CCND1 (human)): 87.7%
- residual activity (MKNK2 (human)): 62%
- residual activity (CDK9 CCNK (human)): 92.3%
- residual activity (PIM1 (human)): 38.6%
- residual activity (STK39 (human)): 93.8%
- residual activity (CDK2 CCNE1 (human)): 87.5%
- residual activity (WNK2 (human)): 105%
- residual activity (EPHA1 (human)): 80.5%
- residual activity (PAK6 (human)): 90.9%
